Data from ChEMBL document CHEMBL4177739, “Design, synthesis and structure-activity relationship evaluation of novel LpxC inhibitors as Gram-negative antibacterial agents” (Bioorg Med Chem Lett, 2018).
Values after ≈ are worked out from the molar mass of the structure shown.

Legend:
[1] = biological target: T1, UDP-3-O-acyl-N-acetylglucosamine deacetylase (Escherichia coli K-12) (UniProt P0A725); experiment: Inhibition of LpxC in Escherichia coli AB1157 assessed as reduction in microbial growth incubated for 22 hrs by MTT assay
T1 sequence (whole entry): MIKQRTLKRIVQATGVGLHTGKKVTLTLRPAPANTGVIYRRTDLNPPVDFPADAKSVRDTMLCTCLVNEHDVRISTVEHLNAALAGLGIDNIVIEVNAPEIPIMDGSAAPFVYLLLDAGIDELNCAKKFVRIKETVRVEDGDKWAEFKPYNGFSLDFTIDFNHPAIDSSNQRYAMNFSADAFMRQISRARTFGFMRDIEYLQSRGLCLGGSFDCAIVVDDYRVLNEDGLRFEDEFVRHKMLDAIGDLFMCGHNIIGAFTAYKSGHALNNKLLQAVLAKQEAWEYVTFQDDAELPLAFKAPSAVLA

[2] = biological target: T2, UDP-3-O-acyl-N-acetylglucosamine deacetylase (Pseudomonas aeruginosa (strain ATCC 15692 / PAO1 / 1C / PRS 101 / LMG12228)) (UniProt P47205)
T2 sequence (whole entry): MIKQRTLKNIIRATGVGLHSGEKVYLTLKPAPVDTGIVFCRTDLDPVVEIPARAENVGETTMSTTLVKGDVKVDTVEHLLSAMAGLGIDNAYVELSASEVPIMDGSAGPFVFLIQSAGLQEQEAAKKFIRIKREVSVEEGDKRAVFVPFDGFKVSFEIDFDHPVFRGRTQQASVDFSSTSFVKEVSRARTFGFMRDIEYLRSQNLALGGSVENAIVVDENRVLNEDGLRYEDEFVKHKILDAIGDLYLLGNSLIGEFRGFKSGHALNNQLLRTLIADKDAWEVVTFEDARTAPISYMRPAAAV

[3] = biological target: T1, UDP-3-O-acyl-N-acetylglucosamine deacetylase (Escherichia coli K-12); experiment: Inhibition of LpxC in Escherichia coli DH5[alpha] assessed as reduction in microbial growth incubated for 22 hrs by MTT assay
[4] = system: Pseudomonas aeruginosa PA14; experiment: Inhibition of LpxC in Pseudomonas aeruginosa PA14 assessed as reduction in microbial growth incubated for 22 hrs by MTT assay
[5] = Elimination half life in human liver microsomes at 0.1 umol/L in presence of NADPH by LC/MS/MS method; assay type: ADME, microsome; conditions: read-out: beta t1/2
[6] = Intrinsic clearance in human liver microsomes assessed as per gram protein at 0.1 umol/L in presence of NADPH by LC/MS/MS method; assay type: ADME, microsome; conditions: 0.1 µM
[7] = Intrinsic clearance in mouse liver microsomes assessed as per gram protein at 0.1 umol/L in presence of NADPH by LC/MS/MS method; assay type: ADME, microsome; parameters: unit not given here; conditions: 0.1 µM
[8] = Elimination half life in mouse liver microsomes at 0.1 umol/L in presence of NADPH by LC/MS/MS method; assay type: ADME, microsome; conditions: read-out: beta t1/2
[9] = Stability in human liver microsomes assessed as drug netabolism at 0.1 umol/L after 60 mins in presence of NADPH by LC/MS/MS method; assay type: ADME, microsome; conditions: 1 h, 0.1 µM

In the case of `C[C@@H](O)[C@H](NC(=O)c1ccc(C#CC#CC2CC2)cc1C#N)C(=O)NO`, the MIC [1] is reported as 80 µg/mL, the MIC [2] is reported as 40 µg/mL (≈ 114 µM) and the MIC [3] is reported as 40 µg/mL. For the same molecule, the MIC [4] was 40 µg/mL.

With `C[C@@H](O)[C@H](NC(=O)[C@@H]1CN(c2ccc(C#Cc3ccccc3)cc2)C(=O)O1)C(=O)NO` the MIC [1] was > 256 µg/mL, the MIC [2] was > 256 µg/mL and the MIC [3] was > 256 µg/mL. For the same molecule, the MIC [4] was > 256 µg/mL.

Work on `C[C@@H](O)[C@H](NC(=O)c1ccc(C#CC#CC2CC2)cc1Cl)C(=O)NO` yielded an MIC [1] of 0.192 µg/mL, an MIC [2] of 6.25 µg/mL (≈ 17.3 µM) and an MIC [3] of 0.048 µg/mL. For the same molecule, the MIC [4] was 6.25 µg/mL.

Work on `C[C@@H](O)[C@H](NC(=O)c1ccc(C#CC#CC2CC2)cc1O)C(=O)NO` yielded an MIC [1] of 0.078 µg/mL, an MIC [2] of 0.625 µg/mL (≈ 1.83 µM) and a half-life at 0.1 µM [5] of 4.55 h. For the same molecule, the MIC [3] was 0.156 µg/mL, the intrinsic clearance [6] was 8 mL/min/g and the “intrinsic clearance in liver microsomes” value [7] was 9. The MIC [4] was 0.625 µg/mL and the half-life at 0.1 µM [8] was 3.88 h.

For `C[C@@H](O)[C@H](NC(=O)c1ccc(C#CC#CC2CC2)c(F)c1)C(=O)NO`, the MIC [1] was 0.4 µg/mL, the MIC [2] was 0.63 µg/mL (≈ 1.83 µM) and the half-life at 0.1 µM [5] was 44.4 h. The MIC [3] was 0.31 µg/mL, the intrinsic clearance [6] was 1 mL/min/g and the “intrinsic clearance in liver microsomes” value [7] was 15. The MIC [4] was 0.63 µg/mL and the half-life at 0.1 µM [8] was 2.38 h.

`C[C@@H](O)[C@H](NC(=O)c1ccc(C#CC#CC2CC2)cc1)C(=O)NO` gave an MIC [1] of 0.024 µg/mL, an MIC [2] of 0.19 µg/mL (≈ 0.582 µM) and a half-life at 0.1 µM [5] of 10.6 h. The MIC [3] was 0.024 µg/mL, the intrinsic clearance [6] was 3 mL/min/g and the “intrinsic clearance in liver microsomes” value [7] was 11. For the same molecule, the MIC [4] was 0.19 µg/mL and the half-life at 0.1 µM [8] was 3.17 h.

In the case of `C[C@@H](O)[C@H](NC(=O)[C@H]1CN(c2ccc(C#Cc3ccccc3)cc2)C(=O)O1)C(=O)NO`, the MIC [1] is reported as > 256 µg/mL, the MIC [2] is reported as > 256 µg/mL and the MIC [3] is reported as > 256 µg/mL. The MIC [4] was > 256 µg/mL.

Molecule `CC(CCc1ccc(-c2ccccc2)cc1)(C(=O)NO)S(C)(=O)=O` (racemic) has an MIC [1] of 1 µg/mL, an MIC [2] of 0.31 µg/mL (≈ 0.892 µM) and an MIC [3] of 0.4 µg/mL. For the same molecule, the MIC [4] was 0.31 µg/mL.

In the case of `C[C@@H](O)[C@H](NC(=O)c1ccc(C#CC#CC2CC2)cc1F)C(=O)NO`, the MIC [1] is reported as 0.31 µg/mL, the MIC [2] is reported as 2.5 µg/mL (≈ 7.26 µM) and the half-life at 0.1 µM [5] is reported as 3.33 h. The MIC [3] was 0.31 µg/mL, the intrinsic clearance [6] was 11 mL/min/g and the “intrinsic clearance in liver microsomes” value [7] was 25. The MIC [4] was 1.25 µg/mL and the half-life at 0.1 µM [8] was 1.42 h.

With `CC(C)(N)[C@H](NC(=O)c1ccc(C#CC#CC2CC2)cc1F)C(=O)NO` the MIC [1] was 0.078 µg/mL, the MIC [2] was 0.625 µg/mL (≈ 1.75 µM) and the Stability [9] was “Stable”. For the same molecule, the MIC [3] was 0.04 µg/mL, the intrinsic clearance [6] was 0 mL/min/g and the “intrinsic clearance in liver microsomes” value [7] was 9. The MIC [4] was 0.31 µg/mL and the half-life at 0.1 µM [8] was 4 h.

For `C[C@@H](O)[C@H](NC(=O)c1ccc(C#CC#CC2CC2)cc1[N+](=O)[O-])C(=O)NO`, the MIC [1] was 0.6 µg/mL, the MIC [2] was 5 µg/mL (≈ 13.5 µM) and the MIC [3] was 0.4 µg/mL. For the same molecule, the MIC [4] was 5 µg/mL.

Work on `CC(C)(N)[C@H](NC(=O)c1ccc(C#CC#CC2CC2)cc1)C(=O)NO` yielded an MIC [1] of 0.039 µg/mL, an MIC [2] of 0.156 µg/mL (≈ 0.46 µM) and a half-life at 0.1 µM [5] of 56.9 h. For the same molecule, the MIC [3] was 0.012 µg/mL, the intrinsic clearance [6] was 1 mL/min/g and the “intrinsic clearance in liver microsomes” value [7] was 10. For the same molecule, the MIC [4] was 0.078 µg/mL and the half-life at 0.1 µM [8] was 3.43 h.

In the case of `C[C@@H](O)[C@H](NC(=O)c1ccc(C#CC#CC2CC2)cn1)C(=O)NO`, the MIC [1] is reported as 1.25 µg/mL, the MIC [2] is reported as 20 µg/mL (≈ 61.1 µM) and the MIC [3] is reported as 0.625 µg/mL. The MIC [4] was 10 µg/mL.

`COc1cc(C#CC#CC2CC2)ccc1C(=O)N[C@H](C(=O)NO)[C@@H](C)O` gave an MIC [1] of 1.25 µg/mL, an MIC [2] of 10 µg/mL (≈ 28.1 µM) and an MIC [3] of 2.5 µg/mL. The MIC [4] was 10 µg/mL.

For `Cc1cc(C#CC#CC2CC2)ccc1C(=O)N[C@H](C(=O)NO)[C@@H](C)O`, the MIC [1] was 0.156 µg/mL, the MIC [2] was 5 µg/mL (≈ 14.7 µM) and the MIC [3] was 0.156 µg/mL. The MIC [4] was 5 µg/mL.

Molecule `C[C@@H](O)[C@H](NS(=O)(=O)c1ccc(C#CC#CC2CC2)cc1)C(=O)NO` has an MIC [1] of 40 µg/mL, an MIC [2] of 100 µg/mL (≈ 276 µM) and an MIC [3] of 20 µg/mL. The MIC [4] was 50 µg/mL.

With `C[C@@H](O)[C@@H](CN(O)C=O)NC(=O)c1ccc(C#CC#CC2CC2)cc1` the MIC [1] was > 256 µg/mL, the MIC [2] was > 256 µg/mL and the MIC [3] was > 256 µg/mL. For the same molecule, the MIC [4] was > 256 µg/mL.

With `CC(C)(N)[C@H](NC(=O)c1ccc(C#CC#CC2CC2)cc1O)C(=O)NO` the MIC [1] was 0.078 µg/mL, the MIC [2] was 0.625 µg/mL (≈ 1.76 µM) and the Stability [9] was “Stable”. For the same molecule, the MIC [3] was 0.078 µg/mL, the intrinsic clearance [6] was 0 mL/min/g and the “intrinsic clearance in liver microsomes” value [7] was 22. The MIC [4] was 0.625 µg/mL and the half-life at 0.1 µM [8] was 1.58 h.

With `CC(CCc1ccc(-c2ccccc2)cc1)(C(=O)Nc1ccccc1N)S(C)(=O)=O` (stereo not given) the MIC [1] was > 256 µg/mL, the MIC [2] was > 256 µg/mL and the MIC [3] was > 256 µg/mL. The MIC [4] was > 256 µg/mL.

`C[C@@H](O)[C@H](NC(=O)c1ccc(C#CC#CC2CC2)cc1OC(F)F)C(=O)NO` gave an MIC [1] of 0.156 µg/mL, an MIC [2] of 10 µg/mL (≈ 25.5 µM) and an MIC [3] of 0.31 µg/mL. For the same molecule, the MIC [4] was 10 µg/mL.

Molecule `C[C@@H](O)[C@H](NC(=O)c1ccc(C#CC#CC2CC2)cc1N)C(=O)NO` has an MIC [1] of 0.04 µg/mL, an MIC [2] of 0.625 µg/mL (≈ 1.83 µM) and an MIC [3] of 0.04 µg/mL. It also gave an MIC [4] of 0.625 µg/mL.

For `C[C@@H](O)[C@H](NC(=O)[C@@H]1CN(c2ccc(-c3ccccc3)cc2)C(=O)O1)C(=O)NO`, the MIC [1] was > 256 µg/mL, the MIC [2] was > 256 µg/mL and the MIC [3] was > 256 µg/mL. The MIC [4] was > 256 µg/mL.

In the case of `CC(C)(N)[C@H](NC(=O)c1ccc(C#CC#CC2CC2)c(F)c1)C(=O)NO`, the MIC [1] is reported as 0.019 µg/mL, the MIC [2] is reported as 0.31 µg/mL (≈ 0.867 µM) and the Stability [9] is reported as “Stable”. The MIC [3] was 0.019 µg/mL, the intrinsic clearance [6] was 0 mL/min/g and the “intrinsic clearance in liver microsomes” value [7] was 16. For the same molecule, the MIC [4] was 0.31 µg/mL and the half-life at 0.1 µM [8] was 2.25 h.

For `C[C@@H](O)[C@H](NC(=O)[C@H]1CN(c2ccc(-c3ccccc3)cc2)C(=O)O1)C(=O)NO`, the MIC [1] was > 256 µg/mL, the MIC [2] was > 256 µg/mL and the MIC [3] was > 256 µg/mL. For the same molecule, the MIC [4] was > 256 µg/mL.

With `C[C@@H](O)[C@H](NC(=O)c1ccc(C#Cc2ccc(CN3CCOCC3)cc2)cc1)C(=O)NO` the MIC [1] was 0.156 µg/mL and the MIC [3] was 0.156 µg/mL.
